This passage reports IC50 results from patent US10487068B2, “Pyridazine derivatives as RORc modulators” (Genentech, Inc., priority 2015, dated 2019).

For the test, the target named is T1, RORc ligand binding domain (Homo sapiens, UniProt P51449).
T1 sequence (P51449 269-508 limits assumed): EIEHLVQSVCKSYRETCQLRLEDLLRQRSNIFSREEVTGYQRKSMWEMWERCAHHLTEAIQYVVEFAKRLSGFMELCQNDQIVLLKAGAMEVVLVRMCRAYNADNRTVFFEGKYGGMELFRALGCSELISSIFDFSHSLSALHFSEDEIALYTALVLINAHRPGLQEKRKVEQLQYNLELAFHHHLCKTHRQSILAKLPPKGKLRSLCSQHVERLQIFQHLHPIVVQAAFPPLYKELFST
Briefly: In Vitro RORc Ligand Binding Assay. The following applies: RORc IC50, radioligand 25-[3H]hydroxycholesterol 6 nM; 0.6 ug/mL RORc receptor; 3 h at 25° C.

The term IC50 denotes the midpoint of a concentration-inhibition curve. Low readings indicate inhibition by little substance, high ones a need for much substance. Consider `CC1(C)[C@H]2CC[C@]1(c1cncc(-c3ccc(=O)[nH]c3)n1)c1nnc(-c3c(F)cccc3F)cc12` [Example 395, 5-(6-((5R,8S)-3-(2,6-difluorophenyl)-9,9-dimethyl-5,6,7,8-tetrahydro-5,8-methanocinnolin-8-yl)pyrazin-2-yl)pyridin-2(1H)-one], for which the IC50 turned out to be 4.3 nM. That is a single-digit nanomolar value.

For the molecule `CC(C)(O)c1nc(-c2cncc([C@@]34CC[C@@H](c5cc(-c6c(F)cccc6F)nnc53)C4(C)C)n2)c[nH]1` [Example 301, 2-(4-(6-((5R,8S)-3-(2,6-difluorophenyl)-9,9-dimethyl-5,6,7,8-tetrahydro-5,8-methanocinnolin-8-yl)pyrazin-2-yl)-1H-imidazol-2-yl)propan-2-ol], the half-inhibitory concentration (IC50) was found to be 13.6 nM. Next, `CC1(C)[C@H]2CC[C@]1(c1ccnc(N3CCCC3)n1)c1nnc(-c3c(F)cccc3F)cc12` [Example 329]: 2.8 nM; `CC1(C)[C@H]2CC[C@]1(c1cncc(-c3ccn(CCC#N)n3)n1)c1nnc(-c3c(F)cccc3F)cc12` [Example 424, 3-(3-(6-((5R,8S)-3-(2,6-difluorophenyl)-9,9-dimethyl-5,6,7,8-tetrahydro-5,8-methanocinnolin-8-yl)pyrazin-2-yl)-1H-pyrazol-1-yl)propanenitrile]: 10.9 nM. Next, `CC1(C)[C@H]2CC[C@]1(c1cc(NS(C)(=O)=O)ccn1)c1nnc(-c3c(F)cccc3F)cc12` [Example 78]: 1190 nM; `CC1(C)[C@H]2CC[C@]1(c1cncc(-c3ccc(N)nc3)n1)c1nnc(-c3c(F)cccc3F)cc12` [Example 419, 5-(6-((5R,8S)-3-(2,6-difluorophenyl)-9,9-dimethyl-5,6,7,8-tetrahydro-5,8-methanocinnolin-8-yl)pyrazin-2-yl)pyridin-2-amine]: 10.1 nM; `CC1(C)[C@H]2CC[C@]1(c1nc(C#N)ncc1Cl)c1nnc(-c3c(F)cccc3F)cc12` [Example 233]: 13.8 nM. In the case of `CC1(C)[C@H]2CC[C@]1(c1nccc(C(N)=O)n1)c1nnc(-c3c(F)cccc3F)cc12` [Example 46, 2-((5R,8R)-3-(2,6-difluorophenyl)-9,9-dimethyl-5,6,7,8-tetrahydro-5,8-methanocinnolin-8-yl)pyrimidine-4-carboxamide] it was 43.2 nM; in that of `CC1(C)[C@H]2CC[C@]1(c1cc(C#N)ccn1)c1nnc(-c3c(F)cccc3F)cc12` [Example 42], 12.1 nM; in that of `Cc1nc(C)n(-c2nccc([C@@]34CC[C@@H](c5cc(-c6c(F)cccc6F)nnc53)C4(C)C)n2)n1` [Example 352], 15.2 nM. The molecule `CN(CCO)C(=O)c1cncc([C@@]23CC[C@@H](c4cc(-c5c(F)cccc5F)nnc42)C3(C)C)n1` [Example 91, 6-((5R,8S)-3-(2,6-difluorophenyl)-9,9-dimethyl-5,6,7,8-tetrahydro-5,8-methanocinnolin-8-yl)-N-(2-hydroxyethyl)-N-methylpyrazine-2-carboxamide] displayed an IC50 of 40.8 nM. In the case of `CC1(C)[C@H]2CC[C@]1(c1ccnc(-n3ccc(CO)n3)n1)c1nnc(-c3c(F)cccc3F)cc12` [Example 252] it was 19.3 nM; in that of `C[C@@H](O)CNC(=O)c1cncc([C@]23CC[C@H](c4cc(-c5c(F)cccc5F)nnc42)C3(C)C)n1` [Example 109, 6-((5S,8R)-3-(2,6-difluorophenyl)-9,9-dimethyl-5,6,7,8-tetrahydro-5,8-methanocinnolin-8-yl)-N-((R)-2-hydroxypropyl)pyrazine-2-carboxamide], 19.8 nM; in that of `Cc1nc(-c2cncc([C@@]34CC[C@@H](c5cc(-c6c(F)cccc6F)nnc53)C4(C)C)n2)co1` [Example 120, 4-(6-((5R,8S)-3-(2,6-difluorophenyl)-9,9-dimethyl-5,6,7,8-tetrahydro-5,8-methanocinnolin-8-yl)pyrazin-2-yl)-2-methyloxazole], 8.6 nM. Next, `CC(=O)N1CCC(c2nccc([C@@]34CC[C@@H](c5cc(-c6c(F)cccc6F)nnc53)C4(C)C)n2)CC1` [Example 351]: 10.5 nM. In the case of `CC(C)(O)c1ncc(-c2nccc([C@@]34CC[C@@H](c5cc(-c6c(F)cccc6F)nnc53)C4(C)C)n2)cn1` [Example 388] it was 7.3 nM. `CC1(C)[C@H]2CC[C@]1(c1cncc(C(=O)NCCO)c1)c1nnc(-c3c(F)cccc3F)cc12` [Example 194, 5-((5R,8S)-3-(2,6-difluorophenyl)-9,9-dimethyl-5,6,7,8-tetrahydro-5,8-methanocinnolin-8-yl)-N-(2-hydroxyethyl)nicotinamide] gave an IC50 of 24.2 nM. Against the preceding molecule, the IC50 is about 3.3-fold higher. In the case of `CC1(C)[C@H]2CC[C@]1(c1cccc(S(=O)(=O)NC3(CO)COC3)n1)c1nnc(-c3c(F)cccc3F)cc12` [Example 199, 6-((5R,8S)-3-(2,6-difluorophenyl)-9,9-dimethyl-5,6,7,8-tetrahydro-5,8-methanocinnolin-8-yl)-N-(3-(hydroxymethyl)oxetan-3-yl)pyridine-2-sulfonamide] it was 9.4 nM; in that of `CC1(C)[C@H]2CC[C@]1(c1cccc(NC(=O)CO)n1)c1nnc(-c3c(F)cccc3F)cc12` [Example 112, N-(6-((5R,8S)-3-(2,6-difluorophenyl)-9,9-dimethyl-5,6,7,8-tetrahydro-5,8-methanocinnolin-8-yl)pyridin-2-yl)-2-hydroxyacetamide], 13.7 nM; in that of `CC1(C)[C@@H]2CC[C@@]1(c1cccc(C#N)n1)c1nnc(-c3c(F)cccc3F)cc12` [Example 59, 6-((5S,8R)-3-(2,6-difluorophenyl)-9,9-dimethyl-5,6,7,8-tetrahydro-5,8-methanocinnolin-8-yl)picolinonitrile], 15.9 nM.

For `CC1(C)[C@H]2CC[C@]1(c1cncc(-c3nc(CCO)n[nH]3)n1)c1nnc(-c3c(F)cccc3F)cc12` [Example 306, 2-(5-(6-((5R,8S)-3-(2,6-difluorophenyl)-9,9-dimethyl-5,6,7,8-tetrahydro-5,8-methanocinnolin-8-yl)pyrazin-2-yl)-1H-1,2,4-triazol-3-yl)ethanol], the IC50 was found to be 16.2 nM.

`CC(C)(O)c1cnc(-c2cncc([C@@]34CC[C@@H](c5cc(-c6c(F)cccc6F)nnc53)C4(C)C)n2)cn1` [Example 400, 2-(6′-((5R,8S)-3-(2,6-difluorophenyl)-9,9-dimethyl-5,6,7,8-tetrahydro-5,8-methanocinnolin-8-yl)-[2,2′-bipyrazin]-5-yl)propan-2-ol] came in with an IC50 of 8.7 nM. In the case of `CC1(C)[C@H]2CC[C@]1(c1cncc(C(=O)NC[C@@H](O)CO)n1)c1nnc(-c3c(F)cccc3F)cc12` [Example 107, 6-((5R,8S)-3-(2,6-difluorophenyl)-9,9-dimethyl-5,6,7,8-tetrahydro-5,8-methanocinnolin-8-yl)-N-((R)-2,3-dihydroxypropyl)pyrazine-2-carboxamide] it was 69.5 nM; in that of `CC1(C)[C@H]2CC[C@]1(c1nc(N)ncc1F)c1nnc(-c3c(F)cccc3F)cc12` [Example 268], 3.3 nM.

The molecule `C[C@H](O)CNC(=O)c1cncc([C@@]23CC[C@@H](c4cc(-c5c(F)cccc5F)nnc42)C3(C)C)n1` [Example 50, 6-((5R,8S)-3-(2,6-difluorophenyl)-9,9-dimethyl-5,6,7,8-tetrahydro-5,8-methanocinnolin-8-yl)-N-((S)-2-hydroxypropyl)pyrazine-2-carboxamide] gave an IC50 of 31.7 nM. Next, `Cc1ncn(-c2ncc(F)c([C@@]34CC[C@@H](c5cc(-c6c(F)cccc6F)nnc53)C4(C)C)n2)n1` [Example 267]: 17.3 nM.
